The results in this text go back to patent US5352451A, “Biological insect control agents and methods of use” (priority 1991, dated 1994).

SMILES strings stand for the structures.

T1 sequence (P18569 19-506): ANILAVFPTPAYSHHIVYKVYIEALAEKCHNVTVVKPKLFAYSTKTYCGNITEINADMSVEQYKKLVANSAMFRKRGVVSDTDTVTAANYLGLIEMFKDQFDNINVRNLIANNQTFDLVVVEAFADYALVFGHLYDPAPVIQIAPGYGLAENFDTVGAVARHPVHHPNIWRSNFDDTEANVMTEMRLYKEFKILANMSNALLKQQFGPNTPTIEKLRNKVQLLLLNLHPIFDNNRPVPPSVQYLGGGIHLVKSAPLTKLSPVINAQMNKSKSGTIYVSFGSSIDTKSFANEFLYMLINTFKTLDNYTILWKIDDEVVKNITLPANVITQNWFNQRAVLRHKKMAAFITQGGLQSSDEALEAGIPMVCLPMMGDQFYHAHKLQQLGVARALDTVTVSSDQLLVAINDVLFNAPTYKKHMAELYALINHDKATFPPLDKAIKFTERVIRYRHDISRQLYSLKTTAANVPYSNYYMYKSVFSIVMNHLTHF

This experiment has as its target T1, EGT (Autographa californica nuclear polyhedrosis virus, UniProt P18569).
T1 construct: extracellular medium from wt-AcMNPV infected cells containing significant egt activity; endogenous in cells; host or cells: Spodoptera frugiperda IPLB-SF-21 (SF) cells infected with wild-type AcMNPV; extracellular medium used unpurified; EGT made from the virus's own gene
Format: biochemical. To be noted: substrate 1 mM; extracellular medium from wt-AcMNPV infected cells; 0.05 μCi UDP-[U-14C]glucose. The method, then: Experiments are then performed to more thoroughly investigate the substrate specificity of EGT. In these experiments various substrates (1 mM) are incubated in the presence of extracellular medium from wt-AcMNPV infected cells containing significant egt activity. As controls to ensure that any conjugation observed is due to EGT, each substrate is also incubated with media from uninfected and vEGTZ-infected cells, which cannot produce EGT. 0.05 μCi UDP-[U-^14 C]glucose are added to each reaction. Any compounds which function as substrates for EGT will be conjugated with glucose; they can be detected because the glucose is radioactively labeled.
Substrates are incubated in the presence of medium derived from
appropriately infected cells and 0.05 μCi UDP[U-^14 C]glucose.
Amounts of glucose transferred are calculated after scintillation countin
of the appropriate regions of the chromatography plates.
The only substrates identified are ecdysone, 20-hydroxyecdysone and makisterone A, all of which are ecdysteriods. No conjugation is observed using medium from mock- or vEGTZ-infected cells, confirming that the activity observed is due to expression of egt.
On to `CC(CC(O)C(C)(O)C1CCC2(O)C3=CC(=O)C4CC(O)C(O)CC4(C)C3CCC12C)C(C)(C)O` (stereo not drawn) [Makisterone A], for which the “wild type (pmol Glucose transferred)” value stood at 89.6 pmol.
For the molecule `C[C@H]([C@H](O)CCC(C)(C)O)[C@H]1CC[C@@]2(O)C3=CC(=O)[C@@H]4C[C@@H](O)[C@@H](O)C[C@]4(C)[C@H]3CC[C@]12C` [Ecdysone], the “wild type (pmol Glucose transferred)” value is on record as 155.7 pmol.
The value for `CC(C)(O)CCC(O)C(C)(O)C1CCC2(O)C3=CC(=O)C4CC(O)C(O)CC4(C)C3CCC12C` (stereo not drawn) [20-Hydroxyecdysone] was 87.8 pmol.
